Assays:
[1] = tested on: K-562; assay: Cell growth inhibition assay (CellTiter-Glo), K-562; format: cell-based, human; conditions: K-562 cells, 4 days; for GI50: Homo sapiens, K562, 96 h, half-maximal growth inhibition; for K-562 TGI: total growth inhibition
How it was run: (§1)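 4-day CTG ATP readout, 37 °C/5% CO2; top conc 10 μM, 3-fold dilutions; 0.1% DMSO vehicle. Luminescence background-subtracted, normalised to day 0 plate; vehicle = 100%, medium = −100%. IC50/TGI by 4-parameter fit.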

[2] = tested on: MV-4-11; assay: Cell growth inhibition assay (CellTiter-Glo), MV-4-11; format: cell-based, human; conditions: MV-4-11 cells, 4 days; for GI50: Homo sapiens, MV4-11, 96 h, half-maximal growth inhibition; for MV-4-11 TGI: total growth inhibition
How it was run: as §1

[3] = target: BRD4 (Homo sapiens (Human), UniProt O60885); assay: TR-FRET in-vitro binding assay for BRD4; conditions: 45 nM His-Brd4(44-477), acetyl-histone H4 (AcK 5, 8, 12, 16) peptide
How it was run: (§2)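 TR-FRET binding read after 35 min incubation at 30° C. Compounds dispensed from 90% DMSO solutions and tested at 8 concentrations in a 13.55 μL total reaction volume.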

[4] = target: BRD4-NUT-fusion (Homo sapiens, UniProt O60885); assay: Nut-foci formation assay in HCC2494 NUT midline carcinoma cells; format: cell-based; conditions: 24 hours, nuclear BRD4-NUT foci by immunofluorescence microscopy, read-out: HCS Brd4-NUT IC50
Procedure: Nut-Foci Formation Assay […] Compound-mediated inhibition of BRD4 activity can be monitored by quantification of the number and intensity of nuclear BRD4-NUT foci using automated immunofluorescence microscopy. Briefly, 5000 cells in 20 μL fresh medium are seeded into Poly-D-Lysine-precoated 384-well plates and incubated overnight at 37° C. and 5% CO2, followed by addition of 5 μl medium containing compound dilutions at 5-fold their final intended concentration. […] Assay plates can be imaged using the appropriate filter sets on the Cellomics VTi automated fluorescence microscopy platform (ThermoFisher Scientific) and the population average of the number of NUT-foci per nucleus is quantified using the Cellomics Spot Detection BioApplication image analysis algorithm (ThermoFisher Scientific). […] Compound concentrations leading to half-maximal (IC50) inhibition of the aforementioned readout parameters are determined using standard four parameter curve fitting.

[5] = target: BRD2 (Homo sapiens (Human), UniProt P25440); assay: TR-FRET in-vitro binding assay for BRD2; conditions: 45 nM His-Brd2(60-472), acetyl-histone H4 (AcK 5, 8, 12, 16) peptide
Chain of BRD2 (P25440 60-472): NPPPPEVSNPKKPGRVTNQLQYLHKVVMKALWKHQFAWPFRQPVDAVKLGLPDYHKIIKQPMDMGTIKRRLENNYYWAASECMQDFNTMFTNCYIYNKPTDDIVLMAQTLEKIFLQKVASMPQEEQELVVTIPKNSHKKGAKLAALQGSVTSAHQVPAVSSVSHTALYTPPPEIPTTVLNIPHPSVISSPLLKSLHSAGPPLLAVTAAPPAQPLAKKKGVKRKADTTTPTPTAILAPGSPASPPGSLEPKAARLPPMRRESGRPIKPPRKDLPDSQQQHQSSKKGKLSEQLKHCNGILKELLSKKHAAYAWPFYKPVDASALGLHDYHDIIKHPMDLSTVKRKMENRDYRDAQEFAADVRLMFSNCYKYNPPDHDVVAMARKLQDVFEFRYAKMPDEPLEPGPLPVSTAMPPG
How it was run: as §2

[6] = tested on: THP-1; assay: Cell growth inhibition assay (CellTiter-Glo), THP-1; format: cell-based, human; conditions: THP-1 cells, 4 days; for GI50: Homo sapiens, 96 h, half-maximal growth inhibition; for THP-1 TGI: total growth inhibition
How it was run: as §1

[7] = target: BRD3 (Homo sapiens (Human), UniProt Q15059); assay: TR-FRET in-vitro binding assay for BRD3; conditions: 45 nM His-Brd3(20-477), acetyl-histone H4 (AcK 5, 8, 12, 16) peptide
Chain of BRD3 (Q15059 20-477): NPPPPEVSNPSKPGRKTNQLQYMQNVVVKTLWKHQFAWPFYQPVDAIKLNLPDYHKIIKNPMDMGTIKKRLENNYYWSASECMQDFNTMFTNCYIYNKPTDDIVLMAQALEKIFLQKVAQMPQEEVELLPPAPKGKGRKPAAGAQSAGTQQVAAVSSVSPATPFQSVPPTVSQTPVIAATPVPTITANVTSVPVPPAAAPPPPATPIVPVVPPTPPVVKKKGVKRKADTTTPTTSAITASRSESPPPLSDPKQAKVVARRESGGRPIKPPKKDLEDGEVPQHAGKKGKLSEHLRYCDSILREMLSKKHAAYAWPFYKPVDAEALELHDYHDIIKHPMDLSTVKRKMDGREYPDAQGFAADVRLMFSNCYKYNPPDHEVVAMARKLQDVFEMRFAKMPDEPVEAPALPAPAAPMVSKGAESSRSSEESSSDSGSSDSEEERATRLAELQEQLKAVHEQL
How it was run: as §2

[8] = target: CREBBP (Homo sapiens (Human), UniProt Q92793); assay: AlphaScreen in-vitro binding assay for CREBBP; conditions: 324 nM His-CREBBP (1081-1197), acetyl-histone H4 (AcK 5, 8, 12) peptide
Chain of CREBBP (Q92793 1081-1197): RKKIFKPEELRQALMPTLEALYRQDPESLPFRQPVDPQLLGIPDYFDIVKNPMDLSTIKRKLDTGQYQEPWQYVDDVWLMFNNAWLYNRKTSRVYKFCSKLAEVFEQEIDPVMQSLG
How it was run: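 IC50 values were derived by non-linear regression of percent inhibition across 8 compound concentrations. Protein was His-tagged CREBBP bromodomain (1081-1197), peptide acetyl-histone H4 (AcK 5, 8, 12), in HEPES pH 7.5 buffer. Read-out was AlphaScreen with Ni-chelate acceptor and streptavidin donor beads, 35 min at 30° C then 60 min at RT.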

SMILES	GI50 [1] [nM]	K-562 TGI [1] [nM]	GI50 [2] [nM]	MV-4-11 TGI [2] [nM]	IC50 [3] [nM]	IC50 [4] [nM]	IC50 [5] [nM]	GI50 [6] [nM]	THP-1 TGI [6] [nM]	IC50 [7] [nM]	IC50 [8] [nM]
Cc1cc(N2C(=O)c3cc(-c4ccc(N(C)C)nc4)n(C)c3C2c2ccc(Cl)cc2)cn(C)c1=O (stereo not shown) [Example 50, 6-(4-chlorophenyl)-5-(1,5-dimethyl-6-oxo-1,6-dihydropyridin-3-yl)-2-(6-(dimethylamino)pyridin-3-yl)-1-methyl-5,6-dihydropyrrolo[3,4-b]pyrrol-4(1H)-one]	105	>10000	20.8	33	46	73.3	37	31.6	64.9	42	
COc1ncc(-c2cc3c(n2C)C(c2ccc(Cl)cc2)N(c2cc(C)c(=O)n(C)c2)C3=O)cn1 (stereo not shown) [Example 55, 6-(4-chlorophenyl)-5-(1,5-dimethyl-6-oxo-1,6-dihydropyridin-3-yl)-2-(2-methoxypyrimidin-5-yl)-1-methyl-5,6-dihydropyrrolo[3,4-b]pyrrol-4(1H)-one]	231	>10000	34.5	54.2	52	146	53	76.3	130	50	
Cc1cc(N2C(=O)c3ccn(C4CC4)c3C2c2ccc(Cl)cc2)cn(C)c1=O (stereo not shown) [Example 61, 6-(4-chlorophenyl)-1-cyclopropyl-5-(1,5-dimethyl-6-oxo-1,6-dihydropyridin-3-yl)-5,6-dihydropyrrolo[3,4-b]pyrrol-4(1H)-one]	421	>10000	61.6	106	68	136	68	102	224	53	
Cn1ccc2c1C(c1ccc(Cl)cc1)N(c1ccc(=O)n(C)c1)C2=O (stereo not shown) [Example 78, 6-(4-chlorophenyl)-1-methyl-5-(1-methyl-6-oxo-1,6-dihydropyridin-3-yl)-5,6-dihydropyrrolo[3,4-b]pyrrol-4(1H)-one]	1610	>10000	486	794.5	150	729		573	1350		
Cc1cc(N2C(=O)c3c(C4CC4)cn(C4COC4)c3C2c2ccc(Cl)cc2)nc2c1nnn2C (stereo not shown) [Example 104, 6-(4-chlorophenyl)-3-cyclopropyl-5-(3,7-dimethyl-3H-[1,2,3]triazolo[4,5-b]pyridin-5-yl)-1-(oxetan-3-yl)-5,6-dihydropyrrolo[3,4-b]pyrrol-4(1H)-one]	36.5	>10000	2.98	11	21		35	6.31	18.4	21	14800
CC(=O)N1CC(n2cc(C3CC3)c3c2C(c2ccc(Cl)cc2)N(c2cc(C)c4nnn(C)c4n2)C3=O)C1 (stereo not shown) [Example 105, 1-(1-acetylazetidin-3-yl)-6-(4-chlorophenyl)-3-cyclopropyl-5-(3,7-dimethyl-3H-[1,2,3]triazolo[4,5-b]pyridin-5-yl)-5,6-dihydropyrrolo[3,4-b]pyrrol-4(1H)-one]	4.76	>10000	0.341	2.43	< 11		13	0.674	2.38	12	14100
